Results published in patent US10807992B2, “Single enantiomer antiparasitic compounds” (priority 2017, dated 2020).

Test system: Ixodes scapularis
Assay: In vitro contact activity against adult ticks (coated vial), I. scapularis
Conditions: for mortality at 0.006 µM: Trial 1, dose 0.006 μM; for mortality at 0.024 µM: Trial 1, dose 0.024 μM; for mortality at 0.098 µM: Trial 1, dose 0.098 μM; for mortality at 0.39 µM: Trial 1, dose 0.39 μM; for mortality at 1.56 µM: Trial 1, dose 1.56 μM; for mortality at 6.25 µM: Trial 1, dose 6.25 μM; for mortality at 25 µM: Trial 1, dose 25 μM; for mortality at 100 µM: Trial 1, dose 100 μM
Experimental: Rhipicephalus sanguineus, Dermacentor variabilis, Amblyomma americanum, (Ecto Services, Inc., Henderson, N.C.) and Ixodes scapularis (Oklahoma State University, Stillwater, Okla.) aged between 2-4 weeks post molt were held in an environmental chamber at 24° C., 80% humidity with 12-hour light/dark cycles.
For tick assays, vial caps were pre-drilled with a single hole in the center of each cap to allow air exchange. A filter paper (Whatman Grade 540 2.1 cm) was placed in the lid of each vial. An aliquot from each compound stock was added to an acetone/triton solution to achieve the desired top doses for the study. Serial dilutions were conducted from the top dose (i.e. 100 ppm) to achieve the desired titration range for EC50 and EC90 determination. For R. sanguineus, D. variabilis, and A. americanum, the final DMSO concentration in each test vial was 0.5%. For I. scapularis, compounds were solubilized directly in an acetone/triton solution due to I. scapularis' sensitivity to DMSO. A 459 μL aliquot of each compound formulation was transferred to a vial containing a Whatman Grade 540 2.1 cm filter paper. Vials were immediately placed on an unheated roller unit to allow for an even coating of the vial walls. After vials were coated, 41 μL of each compound formulation was added to the filter paper embedded in each vial cap. Each cap was allowed to dry. The vials were loosely capped and allowed to dry for a minimum of four hours in a chemical fume hood.
Compounds tested were: the C1 racemate, C1 (R) enantiomer, and the C1 (S) enantiomer. For Trial 3, the C1 (R) enantiomer and the C1 (S) enantiomer were further chiral purified to achieve >99% purity.
Ten adult ticks were added to each vial and held at 24° C., 80% humidity with 12-hour light/dark cycles. Adult ticks were assessed for percent mortality at various time points between 2 hours and 48 hours post infestation. Ticks were stimulated on a heated roller unit and evaluated. Ticks showing no movement, or very slow and uncoordinated movement were noted as dead.

**Q.** Which mortality at 0.006 µM (2 h, Rep1) does the source give for `O=C(CC(F)(F)F)N1CC2(C1)OCc1cc(C3=NS[C@](c4cc(Cl)c(F)c(Cl)c4)(C(F)(F)F)C3)ccc12` [C1 (R) enantiomer, (R)-1-[6-[5-(3,5-dichloro-4-fluoro-phenyl)-5-(trifluoromethyl)-4H-isothiazol-3-yl]spiro[1H-isobenzofuran-3,3′-azetidine]-1′-yl]-3,3,3-trifluoro-propan-1-one] here?
**A.** 0%

**Q.** And the mortality at 0.006 µM (2 h, Rep2)?
**A.** 0%

**Q.** And the mortality at 0.024 µM (2 h, Rep1)?
**A.** 0%

**Q.** What about the mortality at 0.024 µM (2 h, Rep2) of the same compound?
**A.** 0%

**Q.** What about the mortality at 0.098 µM (2 h, Rep1) of the same compound?
**A.** 0%

**Q.** What about the mortality at 0.098 µM (2 h, Rep2) of the same compound?
**A.** 0%

**Q.** What about the mortality at 0.39 µM (2 h, Rep1) of the same compound?
**A.** 0%

**Q.** What about the mortality at 0.39 µM (2 h, Rep2) of the same compound?
**A.** 0%

**Q.** And the mortality at 1.56 µM (2 h, Rep1)?
**A.** 0%

**Q.** What about the mortality at 1.56 µM (2 h, Rep2) of the same compound?
**A.** 0%

**Q.** What about the mortality at 6.25 µM (2 h, Rep1) of the same compound?
**A.** 0%

**Q.** What about the mortality at 6.25 µM (2 h, Rep2) of the same compound?
**A.** 0%

**Q.** What about the mortality at 25 µM (2 h, Rep1) of the same compound?
**A.** 0%

**Q.** What about the mortality at 25 µM (2 h, Rep2) of the same compound?
**A.** 0%

**Q.** And the mortality at 100 µM (2 h, Rep1)?
**A.** 0%

**Q.** What about the mortality at 100 µM (2 h, Rep2) of the same compound?
**A.** 0%

**Q.** And the mortality at 0.006 µM (6 h, Rep1)?
**A.** 0%

**Q.** What about the mortality at 0.006 µM (6 h, Rep2) of the same compound?
**A.** 0%

**Q.** What about the mortality at 0.024 µM (6 h, Rep1) of the same compound?
**A.** 0%

**Q.** What about the mortality at 0.024 µM (6 h, Rep2) of the same compound?
**A.** 0%

**Q.** What about the mortality at 0.098 µM (6 h, Rep1) of the same compound?
**A.** 0%

**Q.** What about the mortality at 0.098 µM (6 h, Rep2) of the same compound?
**A.** 0%

**Q.** What about the mortality at 0.39 µM (6 h, Rep1) of the same compound?
**A.** 0%

**Q.** And the mortality at 0.39 µM (6 h, Rep2)?
**A.** 0%

**Q.** What about the mortality at 1.56 µM (6 h, Rep1) of the same compound?
**A.** 0%

**Q.** And the mortality at 1.56 µM (6 h, Rep2)?
**A.** 0%

**Q.** What about the mortality at 6.25 µM (6 h, Rep1) of the same compound?
**A.** 0%

**Q.** What about the mortality at 6.25 µM (6 h, Rep2) of the same compound?
**A.** 0%

**Q.** What about the mortality at 25 µM (6 h, Rep1) of the same compound?
**A.** 0%

**Q.** And the mortality at 25 µM (6 h, Rep2)?
**A.** 0%

**Q.** And the mortality at 100 µM (6 h, Rep1)?
**A.** 0%

**Q.** What about the mortality at 100 µM (6 h, Rep2) of the same compound?
**A.** 0%

**Q.** And the mortality at 0.006 µM (12 h, Rep1)?
**A.** 0%

**Q.** What about the mortality at 0.006 µM (12 h, Rep2) of the same compound?
**A.** 0%

**Q.** What about the mortality at 0.024 µM (12 h, Rep1) of the same compound?
**A.** 0%

**Q.** And the mortality at 0.024 µM (12 h, Rep2)?
**A.** 0%

**Q.** And the mortality at 0.098 µM (12 h, Rep1)?
**A.** 0%

**Q.** And the mortality at 0.098 µM (12 h, Rep2)?
**A.** 0%

**Q.** What about the mortality at 0.39 µM (12 h, Rep1) of the same compound?
**A.** 0%

**Q.** And the mortality at 0.39 µM (12 h, Rep2)?
**A.** 0%

**Q.** What about the mortality at 1.56 µM (12 h, Rep1) of the same compound?
**A.** 0%

**Q.** And the mortality at 1.56 µM (12 h, Rep2)?
**A.** 0%

**Q.** What about the mortality at 6.25 µM (12 h, Rep1) of the same compound?
**A.** 0%

**Q.** And the mortality at 6.25 µM (12 h, Rep2)?
**A.** 0%

**Q.** What about the mortality at 25 µM (12 h, Rep1) of the same compound?
**A.** 0%

**Q.** And the mortality at 25 µM (12 h, Rep2)?
**A.** 0%

**Q.** What about the mortality at 100 µM (12 h, Rep1) of the same compound?
**A.** 0%

**Q.** And the mortality at 100 µM (12 h, Rep2)?
**A.** 0%

**Q.** And the mortality at 0.006 µM (24 h, Rep1)?
**A.** 0%

**Q.** What about the mortality at 0.006 µM (24 h, Rep2) of the same compound?
**A.** 0%

**Q.** What about the mortality at 0.024 µM (24 h, Rep1) of the same compound?
**A.** 0%

**Q.** And the mortality at 0.024 µM (24 h, Rep2)?
**A.** 0%

**Q.** And the mortality at 0.098 µM (24 h, Rep1)?
**A.** 0%

**Q.** What about the mortality at 0.098 µM (24 h, Rep2) of the same compound?
**A.** 0%

**Q.** What about the mortality at 0.39 µM (24 h, Rep1) of the same compound?
**A.** 0%

**Q.** What about the mortality at 0.39 µM (24 h, Rep2) of the same compound?
**A.** 0%

**Q.** And the mortality at 1.56 µM (24 h, Rep1)?
**A.** 0%

**Q.** And the mortality at 1.56 µM (24 h, Rep2)?
**A.** 0%

**Q.** And the mortality at 6.25 µM (24 h, Rep1)?
**A.** 0%

**Q.** And the mortality at 6.25 µM (24 h, Rep2)?
**A.** 0%

**Q.** What about the mortality at 25 µM (24 h, Rep1) of the same compound?
**A.** 0%

**Q.** What about the mortality at 25 µM (24 h, Rep2) of the same compound?
**A.** 0%

**Q.** What about the mortality at 100 µM (24 h, Rep1) of the same compound?
**A.** 20%

**Q.** And the mortality at 100 µM (24 h, Rep2)?
**A.** 0%

**Q.** What about the mortality at 0.006 µM (48 h, Rep1) of the same compound?
**A.** 0%

**Q.** What about the mortality at 0.006 µM (48 h, Rep2) of the same compound?
**A.** 0%

**Q.** And the mortality at 0.024 µM (48 h, Rep1)?
**A.** 0%

**Q.** And the mortality at 0.024 µM (48 h, Rep2)?
**A.** 0%

**Q.** What about the mortality at 0.098 µM (48 h, Rep1) of the same compound?
**A.** 0%

**Q.** What about the mortality at 0.098 µM (48 h, Rep2) of the same compound?
**A.** 0%

**Q.** What about the mortality at 0.39 µM (48 h, Rep1) of the same compound?
**A.** 0%

**Q.** And the mortality at 0.39 µM (48 h, Rep2)?
**A.** 0%

**Q.** What about the mortality at 1.56 µM (48 h, Rep1) of the same compound?
**A.** 0%

**Q.** And the mortality at 1.56 µM (48 h, Rep2)?
**A.** 0%

**Q.** And the mortality at 6.25 µM (48 h, Rep1)?
**A.** 0%

**Q.** And the mortality at 6.25 µM (48 h, Rep2)?
**A.** 0%

**Q.** What about the mortality at 25 µM (48 h, Rep1) of the same compound?
**A.** 10%

**Q.** What about the mortality at 25 µM (48 h, Rep2) of the same compound?
**A.** 30%

**Q.** What about the mortality at 100 µM (48 h, Rep1) of the same compound?
**A.** 50%

**Q.** And the mortality at 100 µM (48 h, Rep2)?
**A.** 30%
